The text below walks through data of patent US8633161B2, “Therapeutic agents for the treatment of leukemia” (The Ohio State University Research Foundation, priority 2005, dated 2014).

One series relates to BCR/ABL. Briefly: Western blot of BCR/ABL activity (phosphotyrosine) and expression. The format is cell-based. To be noted: upon treatment with FTY720 2.5 μM. For orientation: Immunoblotting shows a protein as a band on a membrane.
Another series has as its system Akt. As to the kind of experiment: Western blot of phosphorylated and total Akt. The format is cell-based. To be noted: FTY720-treated 32D-BCR/ABL cells.
Series [1] has as its system untransduced 32Dc13 cells and primary normal bone marrow cells. As to the kind of experiment: FTY720 on cells not expressing the oncogene. The format is cell-based. The settings on record: untransduced 32Dc13 cells and primary normal bone marrow cells from healthy donors; FTY720 2.5 μM. As for the experimental part: (§1) We obtained FTY720 synthesized using previously published methods (see Budde, K., et al., First human trial of FTY720, a novel immunomodulator, in stable renal transplant patients. J Am Soc Nephrol, (2002) 13:1073-83). Cells in liquid culture and in methylcellulose colony assays were cultured in the presence of 2.5 μM FTY720. SCID mice were i.v. injected with 5×10^5 T315I BCR/ABL-transduced 32Dc13 cells and levels of BCR/ABL in the peripheral blood were assessed by nested reverse transcriptase PCR. Upon establishment of a leukemia-like disease, mice were i.p. injected daily with FTY720 (250 μg/mouse/day). The disease process was monitored weekly by nested reverse transcriptase PCR. Apoptosis was assessed by AnnexinV/PI staining on untreated vs. treated cells.

In a further series the target is T1, PP2A (Mus musculus, UniProt P63330).
T1 construct: endogenous in cells; host or cells: 32Dc13, 32D-BCR/ABL, 32D-BCR/ABL-T315I, 32D-p210 Y253H, BaF3-p210 T315I, K562, primary CML-BC CD34+ and NBM CD34+ cells
As to the kind of experiment: PP2A IP phosphatase assay on lysates of treated cells. The format is cell-based. The settings on record: FTY720 2.5 μM, BCR/ABL-transformed cell lines. As for the experimental part: PP2A phosphatase assays were carried out using the PP2A IP phosphatase assay kit (Upstate). Briefly, protein lysates (50 μg) in 100 μl of 20 mM HEPES (pH 7.0)/100 mM NaCl, 5 μg of PP2Ac antibody (Upstate), and 25 μl of Protein A-agarose were added to 400 μl of 50 mM Tris (pH 7.0)/100 mM CaCl2, and IPs were carried out at 4° C. for 2 hr. IPs were washed and used in the phosphatase reaction according to the manufacturer's protocol. Specificity of the PP2A assay was assessed by titration with okadaic acid and by ascertaining the absence of PP1a in the PP2A immunoprecipitates (Figure S2A). As internal control, the amount of immunoprecipitated PP2A was also monitored by anti-PP2Ac Western blots (Figure S2B).

The test system of series [2] is primary CML-BC, p210-BCR/ABL and p190-BCR/ABL expressing cell lines. Briefly: FTY720 in vitro: proliferation, clonogenic potential and apoptosis of BCR/ABL-expressing cells. The settings on record: 2.5 μM FTY720, imatinib-sensitive and -resistant p210 and p190 cell lines. The format is cell-based.
Excerpt: We studied the in vitro effect of FTY720 and derivative compounds on proliferation rate, clonogenic potential, and apoptosis in imatinib-sensitive and -resistant p210-BCR/ABL-expressing cells and p190-BCR/ABL-expressing cells. We then investigated the in vivo antileukemic potential of FTY720 in a mouse-model of imatinib-resistant CML-BC,
as §1

The test system of series [3] is T315I BCR/ABL-transduced 32Dc13 cells. The format is in vivo. How it is done:
as §1

`CCCCCCCCc1ccc(CCC(N)(CO)CO)cc1` [FTY720]: in the series with BCR/ABL, the BCR/ABL activity entry was “inactivated”. Moreover, in the series on Akt, the Akt phosphorylation/activity entry is “Dephosphorylation and inactivation”. In addition, the “inhibitory effect on cells not expressing the oncogene” value in series [1] is listed as “no effect was detected”. The “expression of PP2A protein levels” value on PP2A was “without increased expression”. Also, the PP2A activity result at PP2A (prior to induction of apoptosis) is listed as “induces”. Besides, the “growth, apoptosis and clonogenic potential” value in series [2] is “significant growth inhibition, apoptosis and impaired clonogenic potential”. Further, the mice alive result in series [3] (FTY720 250 μg/mouse/day i.p., after 20 weeks of treatment) is “more than 50%”. The signs of toxicity result in series [3] (control group that received only the drug) is recorded as “no signs of toxicity”.
